According to patent publication US7442703B2, “Piperidine derivatives useful as CCR5 antagonists” (priority 2001, dated 2008):
Counter-ions that a name gives are not always drawn.

How the values were obtained:
[1] = tested on: HIV-1 luciferase reporter virus in U87-CD4-CCR5 cells; assay: HIV Replication (luciferase) assay; assay type: cell-based; details: Human immunodeficiency virus 1, U87/CD4/CCR5, read-out: HIV Replication (luciferase) IC50
Method: Luciferase Replication Assay:
Plasmids encoding the full length genome of HIV-1 pNL-4-Luc with the gp120 V-3 loop replaced by the Bgl II fragment of HIV-1 ADA, YU-2 or HxB (ADA-Luc-FL, YU-2-Luc-FL and HxB-Luc-FL) are obtained from Dr. Susan Pontow (Washington University, St. Louis Mo.). Replication-competent luciferase reporter virus stocks are generated by transfection of plasmids into 293T cells using Superfect (Qiagen) or Mirus transfection reagents. Viral stocks are collected 48 hours following transfection and titered for luciferase production on U-87-CCR5 or CXCR4 cells. U87-CD4-CCR5 cells (10^4/well) are plated in 96-well cell culture plates and incubated overnight. Media is removed and replaced with 50 μl of fresh culture media (DMEM, 10% FCS) and 50 μl of compound diluted in culture medium. Cells are incubated with compound at 37° C. for 1 hour. The resultant supernatant is removed and replaced with 20 μl of media containing compound and infected with an equal volume of diluted or undiluted virus stock at 37° C. for 3-4 hours. The cells are washed once with DMEM, and 200 μl of media containing compound is added. The cultures are incubated for 3 days, the cells lysed in luciferase lysis buffer (Promega, Madison, Wis.) and transferred to Immulon plates (Dynex Technologies, Chantilly Va.). An equal volume of luciferase substrate (Promega, Madison Wis.) is added to lysates and the plates read immediately in a Wallac Luminometer. Fifty and ninety percent inhibitory concentrations are determined using GraphPad PRISM software.

| SMILES | melting point | IC50 [1] [nM] |
| --- | --- | --- |
| Cc1ncnc(C)c1C(=O)N1CCC(C)(N2CCC(N(Cc3ccccc3)c3ccncc3)CC2)CC1 (as salt: HCl) [Compound 108] | 182 to 189 °C | – |
| Cc1ncnc(C)c1C(=O)N1CCC(C)(N2CCC(N(C)c3ccc(Cl)c4cccnc34)CC2)CC1 (as salt: HCl) | 164 to 167 °C (dec.) | – |
| Cc1ncnc(C)c1C(=O)N1CCC(C)(N2CCC(N(c3ccccc3)c3ccc(C(F)(F)F)nc3)CC2)CC1 (as salt: HCl) [Compound 69] | 189 to 193 °C | – |
| Cc1ncnc(C)c1C(=O)N1CCC(C)(N2CCC(N(Cc3ccccc3)C3CCCN(S(=O)(=O)C4CC4)C3)CC2)CC1 (centres unmarked) (as salt: HCl) [Compound 112] | 190 to 195 °C | – |
| CCCN(c1cccc2cccnc12)C1CCN(C2(C)CCN(C(=O)c3c(C)ncnc3C)CC2)CC1 (as salt: HCl) [Compound 110] | 181 °C (dec.) | – |
| Cc1ncnc(C)c1C(=O)N1CCC(C)(N2CCC(N(Cc3ccccc3)c3ccc(Br)cc3)CC2)CC1 (as salt: HCl) | 168 to 170 °C | – |
| Cc1ncnc(C)c1C(=O)N1CCC(C)(N2CCC(N(Cc3ccccc3)c3ccc(C(C)(C)C)cc3)CC2)CC1 [Compound 21] | – | 1 |
| Cc1ncnc(C)c1C(=O)N1CCC(C)(N2CCC(N(Cc3ccccc3)c3cccc(C#N)c3)CC2)CC1 [Compound 44] | – | 0.1 |
| Cc1ncnc(C)c1C(=O)N1CCC(C)(N2CCC(N(Cc3ccccc3)c3cccc(C(N)=O)c3)CC2)CC1 [Compound 61] | – | 0.5 |
| Cc1ncnc(C)c1C(=O)N1CCC(C)(N2CCC(N(Cc3ccccc3)c3ccc(Oc4ccccc4)cc3)CC2)CC1 [Compound 43] | – | 2 |
| Cc1ncnc(C)c1C(=O)N1CCC(C)(N2CCC(N(Cc3ccccc3)c3ccc(Cl)c(C(F)(F)F)c3)CC2)CC1 [Compound 35] | – | 2 |
